Source: patent US11779572B1, “Methods of treating gastrointestinal stromal tumors” (Deciphera Pharmaceuticals, LLC, priority 2022, dated 2023)

What was measured:
[1] = Observed clinical PK after single and multiple doses; assay type: in vivo; details: human, plasma, oral; SD administration, healthy participants
Procedure: CYP3A4 inactivation parameters and induction parameters were subsequently incorporated in the model to assess the net effect on drug clearance at steady state. Due to the uncertainty in the in vitro CYP3A4 MBI data and CYP3A4 induction data, a series of sensitivity analysis was performed. […] Therefore, the in vitro CYP3A4 interaction data were used in the final model. The simulated profiles of ripretinib and DP-5439 in virtual participants were compared to the clinical data. […] The predicted mean AUC0-12 values for DP-5439 on Day 1 were within 2-fold (majority within 1.5-fold) of the observed values, except for the 250-mg QD dose. The mean AUC0-12 and Cmax values for DP-5439 on Day 15 were under-predicted. […] For example, the reported AUCs for ripretinib and DP-5439 at the 150-mg QD dose level were 1.66 and 5.29, respectively. […] The mechanisms for the accumulation of DP-5439 were unclear.

[2] = system: patients with advanced GIST; experiment: Example 1 study: patient reported outcomes (EQ-5D-5L VAS, EORTC QLQ-C30); assay type: in vivo, human; details: 150 mg QD
Procedure: Patient reported outcomes were assessed by EQ-5D-5L, which provides a visual analogue scale (VAS), and EORTC QLQ-C30, which provides physical function and role function scales. The EQ-5D-5L VAS (or EQ-VAS) records the respondent's overall current health on a vertical visual analogue scale and provides a quantitative measure of the patient's perception of overall health. These patient outcomes were reported across 28-day cycles of receiving 150 mg QD ripretinib or placebo.
The EORTC QLQ-C30 is an assessment of function and symptoms of therapy by cancer patient, and is not specific to any cancer. The EORTC QLQ-C30 is a 30-question plus one global health status, including 5 functional scales, 3 symptom scales and a global health status.

[3] = PBPK model of ripretinib and DP-5439 (Simcyp Simulator)
Source text: (§1) A PBPK model that included a mechanistic absorption model was developed.
Thus, potential auto-induction and auto-inhibition effects were captured within the model.
Single dose (SD) PK data from participants with mild, moderate, and severe HI were used to refine and/or verify the PBPK model. […] Subsequently, the corresponding plasma concentration-time profiles in HI participants were likewise simulated and compared to the observed data.
Predictions of plasma drug concentration-time profiles, clearance and DDIs were performed in the Simcyp Simulator using a population of virtual participants. The default healthy participant population was applied in all simulations involving healthy participants. […] With the exception of demographic data, all parameter values for the healthy participant population were the same as those used for the North European Caucasian population.
For simulations involving cancer participants, the North European Caucasian population was used to accommodate the wider age range observed in this population (19 to 87 years old; median 61 years). Weibull age distribution was applied with alpha and beta values of 5.47 and 66.5 years for male participants and 5.22 and 68.57 years for female participants. Age, height and weight distributions for the simulated virtual participant population were consistent with those from the first-in-human dose-escalation study in cancer patients.
For simulations involving participants with HI, 3 population models have been developed for the Simcyp Simulator and are based on the 3 Child-Pugh categories (CP-A, CP-B and CP-C). […] When reduced hepatic size was also taken into account, overall CYP3A4 expression in CP-A, CP-B and CP-C participants was reduced to 69%, 36% and 20%, respectively, to that of healthy participants.

CYP3A4 = CYP3A4 (Homo sapiens, UniProt P08684); experiment: Contribution of CYP enzymes to metabolism, in vitro data; assay type: in vitro ADME; details: base model, based on in vitro data
Source text: as §1

GIST = experiment: Phase 1 study, ripretinib 150 mg QD, second-line through fourth-line plus GIST (Example 3): efficacy; assay type: in vivo, human; details: for Best response (confirmed only): CR / Best response (confirmed only): PR / Best response (confirmed only): Progressive disease / Best response (confirmed only): Stable disease / ORR, n (95% CI) / PFS, Median: 150 mg QD; for ORR, n (95% CI): CR+PR; for PFS, Median: investigator assessment
Procedure: Efficacy and safety results from the escalation and expansion phases of a phase 1 study for patients with GIST treated at ripretinib 150 mg QD as the starting dose in 28-day cycles are presented. Local, investigator-assessed Response Evaluation Criteria in Solid Tumors (RECIST 1.1) response assessments were performed every 2 cycles, and patients in the expansion cohorts who progressed per RECIST 1.1 were allowed to dose escalate to 150 mg BID.
142 patients with GIST in the escalation and expansion phases were treated at 150 mg QD dose. Number of patients by line of therapy were as follows: 31 2nd line, 28 3rd line, and 83≥4th line patients. 135 patients (95.1%) had KIT-mutant GIST, and 7 patients (4.9%) had PDGFRA-mutant GIST.
For example, the confirmed-only complete response (CR), partial response (PR), stable disease, and progressive disease are presented in Table 4. The objective response rate data in Table 4 relates to the proportion of patients with CR+PR. The median PFS data in Table 4 refers to progression-free survival per investigator assessment, by line of therapy.
In Table 4: ^a64 subjects escalated to 150 mg BID among patients with GIST in the 150 mg QD dose group. CI, confidence interval; CR, complete response; NE, not estimable; ORR, objective response rate; PFS, progression-free survival; PR, partial response; SD, […]. Local (investigator) response assessment.

CYP2D6 = CYP2D6 (Homo sapiens, UniProt P10635); experiment: Contribution of CYP enzymes to metabolism, in vitro data; assay type: in vitro ADME; details: base model, based on in vitro data
Chain of CYP2D6 (P10635 whole entry): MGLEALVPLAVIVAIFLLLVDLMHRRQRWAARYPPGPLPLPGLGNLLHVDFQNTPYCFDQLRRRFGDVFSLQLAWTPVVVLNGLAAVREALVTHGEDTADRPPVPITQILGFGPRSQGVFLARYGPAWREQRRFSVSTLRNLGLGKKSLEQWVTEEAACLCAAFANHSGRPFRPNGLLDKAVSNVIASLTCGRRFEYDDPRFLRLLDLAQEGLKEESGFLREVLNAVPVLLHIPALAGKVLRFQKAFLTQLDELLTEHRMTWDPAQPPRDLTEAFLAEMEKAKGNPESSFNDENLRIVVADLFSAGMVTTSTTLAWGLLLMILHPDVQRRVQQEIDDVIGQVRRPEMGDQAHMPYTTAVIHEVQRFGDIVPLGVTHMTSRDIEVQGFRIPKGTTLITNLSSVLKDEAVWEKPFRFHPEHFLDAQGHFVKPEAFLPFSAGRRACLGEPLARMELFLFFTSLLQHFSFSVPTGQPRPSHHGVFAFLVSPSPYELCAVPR
Source text: as §1

Chain of CYP3A4 (P08684 whole entry): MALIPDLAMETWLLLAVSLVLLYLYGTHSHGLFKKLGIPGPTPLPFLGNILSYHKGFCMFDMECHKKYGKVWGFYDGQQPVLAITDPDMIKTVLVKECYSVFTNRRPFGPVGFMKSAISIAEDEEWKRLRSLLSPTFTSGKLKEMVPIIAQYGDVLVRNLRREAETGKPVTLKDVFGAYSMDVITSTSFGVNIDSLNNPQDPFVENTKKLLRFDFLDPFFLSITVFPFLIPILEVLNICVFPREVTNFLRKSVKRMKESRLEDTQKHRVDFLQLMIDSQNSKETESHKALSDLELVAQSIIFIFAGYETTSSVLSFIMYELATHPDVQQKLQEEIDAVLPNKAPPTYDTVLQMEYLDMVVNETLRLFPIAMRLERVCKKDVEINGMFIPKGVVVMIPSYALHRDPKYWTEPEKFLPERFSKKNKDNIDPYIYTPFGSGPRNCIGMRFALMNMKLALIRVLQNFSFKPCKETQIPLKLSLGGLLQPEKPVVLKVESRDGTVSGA

For CCn1c(=O)c(-c2cc(NC(=O)Nc3ccccc3)c(F)cc2Br)cc2cnc(NC)cc21 [ripretinib], the half-life [1] was ~14 h, the “EORTC QLQ-C30 physical function score, average improvement from baseline” value ([2]; baseline to C2D1) was 1.6 and the “EORTC QLQ-C30 role function score, average improvement from baseline” value ([2]; baseline to C2D1) was 3.5. For the same compound, the “EQ-VAS score, average improvement from baseline” value ([2]; baseline to Cycle 2, Day 1) was 3.7, the “EORTC QLQ-C30 Question C29 (overall health) score improvement” value ([2]; scale 1 to 7) was 0.20 and the “EORTC QLQ-C30 Question C30 (overall quality of life) score improvement” value ([2]; scale 1 to 7) was 0.28. The “all predictions relative to observed” value ([3]; 150 mg QD dose) was ≤ 1.25 fold, the “predicted mean AUC0-12 and Cmax relative to observed values” ([3]; Day 1 and Day 15, except 250-mg QD dose) was ≤ 1.5 fold and the “share of metabolism assigned to CYP3A4” value (CYP3A4) was 59%. The “Best response (confirmed only): CR” value (GIST; 2nd Line (n = 31)) was 0 n (%), the “Best response (confirmed only): PR” value (GIST; 2nd Line (n = 31)) was 6 (19.4) n (%) and the “Best response (confirmed only): Progressive disease” value (from here on “Best response … Progressive disease”) (GIST; 2nd Line (n = 31)) was 4 (12.9) n (%). The “Best response (confirmed only): Stable disease” value (“Best response … Stable disease” below) (GIST; 2nd Line (n = 31)) was 21 (67.7) n (%), the “ORR, n (95% CI)” value (GIST; 2nd Line (n = 31)) was 19.4 (7.5, 37.5) and the “PFS, Median” value (GIST; 2nd Line (n = 31)) was 46.4 weeks. For the same compound, the “Best response (confirmed only): CR” value (GIST; 3rd Line (n = 28)) was 0 n (%), the “Best response (confirmed only): PR” value (GIST; 3rd Line (n = 28)) was 4 (14.3) n (%) and the “Best response … Progressive disease” value (GIST; 3rd Line (n = 28)) was 6 (21.4) n (%). For the same compound, the “Best response … Stable disease” value (GIST; 3rd Line (n = 28)) was 18 (64.3) n (%), the “ORR, n (95% CI)” value (GIST; 3rd Line (n = 28)) was 14.3 and the “PFS, Median” value (GIST; 3rd Line (n = 28)) was 36.3 weeks. The “Best response (confirmed only): CR” value (GIST; ≥4th Line (n = 83)) was 0 n (%), the “Best response (confirmed only): PR” value (GIST; ≥4th Line (n = 83)) was 6 (7.2) n (%) and the “Best response … Progressive disease” value (GIST; ≥4th Line (n = 83)) was 22 (26.5) n (%). For the same compound, the “Best response … Stable disease” value (GIST; ≥4th Line (n = 83)) was 49 (59.0) n (%), the “ORR, n (95% CI)” value (GIST; ≥4th Line (n = 83)) was 7.2 (2.7, 15.1) and the “PFS, Median” value (GIST; ≥4th Line (n = 83)) was 23.9 weeks. For the same compound, the “PFS of second and third-line patients with Exons 9, 11, 13 or 17 KIT mutations” value (GIST; FIG. 27) was “comparable PFS”, the “clinical benefit after dose escalation to 150 mg BID (PFS1 vs PFS2)” value (GIST; regardless of line of therapy, FIG. 25) was “additional clinical benefit” and the “share of metabolism assigned to CYP2D6” value (CYP2D6) was 18%.
